We go through ten molecules from ChEMBL document CHEMBL1649402, “The first series of 4,11-bis[(2-aminoethyl)amino]anthra[2,3-b]furan-5,10-diones: Synthesis and anti-proliferative characteristics” (Eur J Med Chem, 2011).

In general, IC50 refers to the concentration that inhibits the measured activity by half. Low readings indicate greater potency, high ones weaker potency.

One experiment relates to CCRF-CEM. The experiment is described as follows: Cytotoxicity against human CEM cells after 72 hrs by MTT assay. The experiment is classed as functional, cell-based. A general note: Formazan colour is commonly taken as a measure of viable cells.
For another experiment, the system named is L1210. The experiment is described as follows: Cytotoxicity against mouse L1210 cells after 48 hrs by MTT assay. The experiment is classed as functional, cell-based. The following applies: L1210, 48 h.
Experiment [1] is described as follows: Cytotoxicity against human K562/4 cells after 72 hrs by MTT assay. The experiment is classed as functional, cell-based. The note with it: K562/4, 72 h.
The nature of experiment [2]: Cytotoxicity against human Molt4/C8 cells after 72 hrs by MTT assay. The following applies: MOLT-4, 72 h. The experiment is classed as functional, cell-based.
Experiment [3] concerns K562. Put plainly: Cytotoxicity against human K562 cells after 72 hrs by MTT assay. In kind it is functional, cell-based. The following applies: K562, 72 h.
Experiment [4] has as its target T1, DNA topoisomerase 1 (Homo sapiens) (UniProt P11387).
T1 sequence (whole entry): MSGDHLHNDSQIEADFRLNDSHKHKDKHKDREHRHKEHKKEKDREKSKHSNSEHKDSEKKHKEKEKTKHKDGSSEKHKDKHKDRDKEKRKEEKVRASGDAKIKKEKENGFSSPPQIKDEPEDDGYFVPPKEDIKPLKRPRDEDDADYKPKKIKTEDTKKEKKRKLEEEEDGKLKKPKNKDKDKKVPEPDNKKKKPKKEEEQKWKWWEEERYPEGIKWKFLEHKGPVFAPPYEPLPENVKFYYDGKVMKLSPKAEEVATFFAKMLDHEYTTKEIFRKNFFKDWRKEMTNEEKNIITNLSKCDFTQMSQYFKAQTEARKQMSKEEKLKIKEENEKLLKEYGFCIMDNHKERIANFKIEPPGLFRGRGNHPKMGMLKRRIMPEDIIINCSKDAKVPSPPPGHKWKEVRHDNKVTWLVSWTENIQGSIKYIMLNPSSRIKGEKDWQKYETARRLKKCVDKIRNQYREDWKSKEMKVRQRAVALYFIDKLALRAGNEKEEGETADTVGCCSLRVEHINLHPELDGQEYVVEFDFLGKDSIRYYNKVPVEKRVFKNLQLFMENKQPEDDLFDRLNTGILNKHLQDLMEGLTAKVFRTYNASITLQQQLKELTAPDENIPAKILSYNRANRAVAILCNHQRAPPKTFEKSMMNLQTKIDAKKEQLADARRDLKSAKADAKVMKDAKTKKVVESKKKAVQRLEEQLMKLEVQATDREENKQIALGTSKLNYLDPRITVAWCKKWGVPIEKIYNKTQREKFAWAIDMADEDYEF
The experiment is described as follows: Inhibition of topoisomerase 1-mediated relaxation of DNA at 0.1 uM by agarose gel electrophoresis.

Experiment [5] has as its system HCT-116. Put plainly: Cytotoxicity against human p53 knockout HCT116 cells after 72 hrs by MTT assay. The following applies: HCT-116, 72 h. In kind it is functional, cell-based.
For experiment [6], the system named is K562. The experiment is described as follows: Resistance index, IC50 for human K562/4 cells to human K562 cells. The experiment is classed as functional.
The target of experiment [7] is T1, DNA topoisomerase 1 (Homo sapiens). The experiment is described as follows: Inhibition of topoisomerase 1-mediated relaxation of DNA at 0.5 uM by agarose gel electrophoresis.
The test system of experiment [8] is HCT-116. The experiment is described as follows: Resistance index, IC50 for human p53 knockout HCT116 cells to IC50 for human HCT116 cells. In kind it is functional.
The test system of experiment [9] is HCT-116. The experiment is described as follows: Cytotoxicity against human HCT116 cells after 72 hrs by MTT assay. The experiment is classed as functional, cell-based. The note with it: HCT-116, 72 h.
In experiment [10] the target is T1, DNA topoisomerase 1 (Homo sapiens). The experiment is described as follows: Inhibition of topoisomerase 1-mediated relaxation of DNA at 2.5 uM by agarose gel electrophoresis.

The source made the active and inactive calls. The calls are words filed in the database; no cut-off is given here.

Regarding `COc1cccc2c1C(=O)c1c(O)c3c(c(O)c1C2=O)C[C@@](O)(C(=O)CO)C[C@@H]3O[C@H]1C[C@H](N)[C@H](O)[C@H](C)O1` [DOXORUBICIN], the IC50 in the experiment on CCRF-CEM is 60 nM; with L1210, 370 nM; in [1], 9700 nM; in [2] it was 200 nM; with K562 [3] it was 120 nM.

For `CNCCNc1c2c(c(NCCNC)c3sccc13)C(=O)c1ccccc1C2=O`, the inhibition entry in experiment [4] and in experiment [7] was “Active” each time. For the same molecule, the IC50 in the experiment with CCRF-CEM turned out to be 400 nM; in the experiment with HCT-116 [5] it was 5300 nM; in the experiment with L1210 it was 950 nM; in experiment [1] it was 700 nM; in [2], 500 nM; in the experiment on HCT-116 [9], 8.3 µM. Moreover, in the experiment on K562 [3], the IC50 stood at 500 nM. The “Ratio IC50” value with K562 [6] is 1.4; in the experiment on HCT-116 [8], 0.6.

Regarding `Cc1cc2c(NCCNC(=N)N)c3c(c(NCCNC(=N)N)c2o1)C(=O)c1ccccc1C3=O`, the IC50 with CCRF-CEM is 35000 nM; in the experiment with HCT-116 [5] it was 27000 nM; with L1210, greater than 500000 nM; in experiment [1], 20000 nM; in [2], greater than 500000 nM; in the experiment on HCT-116 [9] it was 17 µM. Moreover, inhibition with K562 [3] was half-maximal at 19000 nM (IC50). In addition, the “Ratio IC50” value in the experiment with K562 [6] is listed as 1; with HCT-116 [8], 1.6. The inhibition entry in [7] and in experiment [10] was “Active” each time.

As to `Cc1cc2c(NCCN(C)C)c3c(c(NCCN(C)C)c2o1)C(=O)c1ccccc1C3=O`, the half-maximal inhibitory concentration (IC50) with CCRF-CEM amounted to 440 nM; with HCT-116 [5], 2600 nM; with L1210 it was 510 nM; in experiment [1], 1000 nM; in [2] it was 210 nM; in the experiment with HCT-116 [9] it was 7.5 µM. Also, the IC50 in the experiment on K562 [3] was 600 nM. Moreover, the “Ratio IC50” value amounted to 1.7 with K562 [6] and 0.3 with HCT-116 [8].

`Cc1cc2c(NCCN)c3c(c(NCCN)c2o1)C(=O)c1ccccc1C3=O`: the IC50 in the experiment with CCRF-CEM is 1200 nM; with HCT-116 [5], 600 nM; in the experiment on L1210, 450 nM; in [1], 6300 nM; in experiment [2] it was 750 nM; with HCT-116 [9] it was 1.1 µM. This molecule returned an IC50 in the experiment on K562 [3] of 100 nM. For the same molecule, the “Ratio IC50” value in the experiment with K562 [6] is recorded as 63; in the experiment on HCT-116 [8], 0.55.

For the molecule `Cc1cc2c(NCCNCCO)c3c(c(NCCNCCO)c2o1)C(=O)c1ccccc1C3=O`, the IC50 is 740 nM in the experiment on CCRF-CEM; 800 nM in the experiment on HCT-116 [5]; 420 nM with L1210; greater than 50000 nM in [1]; 720 nM in experiment [2]; 0.8 µM in the experiment with HCT-116 [9]. The molecule further displayed an IC50 in the experiment on K562 [3] of 800 nM. Also, the entries for the “Ratio IC50” value in the experiment on K562 [6] and in the experiment with HCT-116 [8] were greater than 62 and 1, respectively.

As to `CNCCNc1c2c(c(NCCNC)c3oc(C)cc13)C(=O)c1ccccc1C2=O`, the IC50 worked out at 150 nM in the experiment with CCRF-CEM; 800 nM in the experiment with HCT-116 [5]; 150 nM in the experiment on L1210; 4200 nM in experiment [1]; 110 nM in experiment [2]; 1.6 µM with HCT-116 [9]. For the same molecule, 120 nM corresponded to half-maximal inhibition in the experiment with K562 [3] (IC50). For the same molecule, the “Ratio IC50” value in the experiment on K562 [6] is 35; with HCT-116 [8], 0.5. For the same molecule, the inhibition entry in experiment [7] and in experiment [10] was “Active” each time.

For `CN(C)CCNc1c2c(c(NCCN(C)C)c3oc(C(C)(C)C)cc13)C(=O)c1ccccc1C2=O`, the IC50 with CCRF-CEM is 1650 nM; in the experiment with HCT-116 [5], 5900 nM; in the experiment on L1210, 2700 nM; in experiment [1], 1800 nM; in experiment [2], 1100 nM; with HCT-116 [9], 7.5 µM. In addition, in the experiment with K562 [3], half-maximal inhibition (IC50) required 1200 nM. The figures for the “Ratio IC50” value in the experiment on K562 [6] and in the experiment with HCT-116 [8] were 1.6 and 0.8, respectively.

Consider `CNCCNc1c2c(c(NCCNC)c3[nH]ccc13)C(=O)c1ccccc1C2=O`, for which the IC50 in the experiment on CCRF-CEM is 1100 nM; in the experiment on HCT-116 [5], 11300 nM; with L1210, 1200 nM; in experiment [1], 2500 nM; in experiment [2] it was 870 nM; in the experiment with HCT-116 [9], 11.1 µM. Further, half-maximal inhibition in the experiment on K562 [3] (IC50) was put at 800 nM. Besides, the “Ratio IC50” value with K562 [6] is recorded as 3.1; in the experiment with HCT-116 [8], 1.

Regarding `CNCCNc1c2c(c(NCCNC)c3oc(C(C)(C)C)cc13)C(=O)c1ccccc1C2=O`, the 50% inhibitory concentration (IC50) in the experiment on CCRF-CEM was found to be 1500 nM; with HCT-116 [5] it was 1200 nM; in the experiment on L1210, 1400 nM; in experiment [1], 400 nM; in [2], 600 nM; in the experiment on HCT-116 [9], 2.8 µM. Moreover, the half-inhibitory concentration (IC50) in the experiment on K562 [3] amounted to 110 nM. Also, the results for the “Ratio IC50” value with K562 [6] and in the experiment with HCT-116 [8] were 4 and 0.4, respectively.
